Experiment [1] concerns the target T1, Phosphatidylinositol 4,5-bisphosphate 3-kinase catalytic subunit delta isoform (Homo sapiens, UniProt O00329).
T1 sequence (O00329 whole entry): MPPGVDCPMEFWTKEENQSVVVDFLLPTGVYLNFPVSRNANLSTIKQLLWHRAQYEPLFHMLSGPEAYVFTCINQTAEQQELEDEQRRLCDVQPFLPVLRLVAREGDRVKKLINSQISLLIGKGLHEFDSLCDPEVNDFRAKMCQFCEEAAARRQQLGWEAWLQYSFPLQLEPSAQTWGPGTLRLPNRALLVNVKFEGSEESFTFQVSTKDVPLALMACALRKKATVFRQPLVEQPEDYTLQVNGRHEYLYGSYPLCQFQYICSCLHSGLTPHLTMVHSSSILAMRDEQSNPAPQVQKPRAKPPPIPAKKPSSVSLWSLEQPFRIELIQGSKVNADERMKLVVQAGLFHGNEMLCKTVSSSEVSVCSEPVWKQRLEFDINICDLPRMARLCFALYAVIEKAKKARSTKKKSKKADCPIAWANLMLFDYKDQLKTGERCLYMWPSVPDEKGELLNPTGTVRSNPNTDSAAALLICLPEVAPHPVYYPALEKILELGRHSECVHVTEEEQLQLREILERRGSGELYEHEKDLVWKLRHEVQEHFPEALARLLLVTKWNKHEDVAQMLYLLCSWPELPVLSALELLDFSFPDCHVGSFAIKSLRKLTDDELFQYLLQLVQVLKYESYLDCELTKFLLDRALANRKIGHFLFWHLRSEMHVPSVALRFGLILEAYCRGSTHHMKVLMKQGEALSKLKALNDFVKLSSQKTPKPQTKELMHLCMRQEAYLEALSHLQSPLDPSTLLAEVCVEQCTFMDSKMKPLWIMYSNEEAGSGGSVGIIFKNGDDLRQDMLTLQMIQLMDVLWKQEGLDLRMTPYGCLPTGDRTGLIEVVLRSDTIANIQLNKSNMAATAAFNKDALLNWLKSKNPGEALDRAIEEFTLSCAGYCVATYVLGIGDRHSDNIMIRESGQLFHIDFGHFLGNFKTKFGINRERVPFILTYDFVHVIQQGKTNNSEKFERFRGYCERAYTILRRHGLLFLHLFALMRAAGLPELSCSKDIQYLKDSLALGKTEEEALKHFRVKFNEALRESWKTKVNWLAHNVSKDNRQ
Put plainly: Inhibition of PI3Kdelta (unknown origin).

In experiment [2] the target is Phosphatidylinositol 4,5-bisphosphate 3-kinase catalytic subunit alpha isoform (Homo sapiens, UniProt P42336). Put plainly: Inhibition of PI3Kalpha (unknown origin).
For experiment [3], the target named is Phosphatidylinositol 4,5-bisphosphate 3-kinase catalytic subunit gamma isoform (Homo sapiens, UniProt P48736). Put plainly: Inhibition of PI3Kgamma (unknown origin).
The target of experiment [4] is Phosphatidylinositol 4,5-bisphosphate 3-kinase catalytic subunit beta isoform (Homo sapiens, UniProt P42338). The experiment is described as follows: Inhibition of PI3Kbeta (unknown origin).
Chain of Phosphatidylinositol 4,5-bisphosphate 3-kinase catalytic subunit beta isoform (P42338 whole entry, canonical isoform): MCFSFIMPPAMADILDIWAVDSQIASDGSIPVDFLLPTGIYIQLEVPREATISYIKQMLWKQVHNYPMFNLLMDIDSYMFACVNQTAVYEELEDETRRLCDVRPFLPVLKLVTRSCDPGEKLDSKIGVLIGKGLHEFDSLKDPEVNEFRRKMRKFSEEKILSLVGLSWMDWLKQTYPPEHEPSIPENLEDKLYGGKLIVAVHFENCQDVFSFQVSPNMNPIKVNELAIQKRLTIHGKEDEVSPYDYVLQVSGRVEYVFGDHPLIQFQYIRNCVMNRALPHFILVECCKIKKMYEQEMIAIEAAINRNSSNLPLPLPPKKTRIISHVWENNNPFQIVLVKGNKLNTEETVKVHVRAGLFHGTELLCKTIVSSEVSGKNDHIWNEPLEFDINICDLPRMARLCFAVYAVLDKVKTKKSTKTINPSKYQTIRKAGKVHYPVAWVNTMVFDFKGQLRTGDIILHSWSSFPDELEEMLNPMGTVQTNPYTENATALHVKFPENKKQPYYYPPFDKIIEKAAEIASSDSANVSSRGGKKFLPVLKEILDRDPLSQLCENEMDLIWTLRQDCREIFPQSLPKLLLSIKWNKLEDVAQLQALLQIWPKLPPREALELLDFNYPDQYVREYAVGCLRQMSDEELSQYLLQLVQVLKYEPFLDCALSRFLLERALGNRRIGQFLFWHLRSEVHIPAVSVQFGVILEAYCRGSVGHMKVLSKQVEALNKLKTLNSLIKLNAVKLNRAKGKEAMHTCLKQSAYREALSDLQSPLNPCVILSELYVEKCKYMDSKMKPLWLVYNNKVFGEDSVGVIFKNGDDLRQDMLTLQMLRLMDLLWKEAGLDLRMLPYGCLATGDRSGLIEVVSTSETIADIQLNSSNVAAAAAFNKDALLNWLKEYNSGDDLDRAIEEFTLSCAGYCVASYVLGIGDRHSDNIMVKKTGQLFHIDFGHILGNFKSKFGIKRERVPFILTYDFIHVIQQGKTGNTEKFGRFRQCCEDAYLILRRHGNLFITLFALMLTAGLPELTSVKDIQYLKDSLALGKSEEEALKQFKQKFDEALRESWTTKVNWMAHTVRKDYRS

Chain of Phosphatidylinositol 4,5-bisphosphate 3-kinase catalytic subunit gamma isoform (P48736 whole entry, canonical isoform): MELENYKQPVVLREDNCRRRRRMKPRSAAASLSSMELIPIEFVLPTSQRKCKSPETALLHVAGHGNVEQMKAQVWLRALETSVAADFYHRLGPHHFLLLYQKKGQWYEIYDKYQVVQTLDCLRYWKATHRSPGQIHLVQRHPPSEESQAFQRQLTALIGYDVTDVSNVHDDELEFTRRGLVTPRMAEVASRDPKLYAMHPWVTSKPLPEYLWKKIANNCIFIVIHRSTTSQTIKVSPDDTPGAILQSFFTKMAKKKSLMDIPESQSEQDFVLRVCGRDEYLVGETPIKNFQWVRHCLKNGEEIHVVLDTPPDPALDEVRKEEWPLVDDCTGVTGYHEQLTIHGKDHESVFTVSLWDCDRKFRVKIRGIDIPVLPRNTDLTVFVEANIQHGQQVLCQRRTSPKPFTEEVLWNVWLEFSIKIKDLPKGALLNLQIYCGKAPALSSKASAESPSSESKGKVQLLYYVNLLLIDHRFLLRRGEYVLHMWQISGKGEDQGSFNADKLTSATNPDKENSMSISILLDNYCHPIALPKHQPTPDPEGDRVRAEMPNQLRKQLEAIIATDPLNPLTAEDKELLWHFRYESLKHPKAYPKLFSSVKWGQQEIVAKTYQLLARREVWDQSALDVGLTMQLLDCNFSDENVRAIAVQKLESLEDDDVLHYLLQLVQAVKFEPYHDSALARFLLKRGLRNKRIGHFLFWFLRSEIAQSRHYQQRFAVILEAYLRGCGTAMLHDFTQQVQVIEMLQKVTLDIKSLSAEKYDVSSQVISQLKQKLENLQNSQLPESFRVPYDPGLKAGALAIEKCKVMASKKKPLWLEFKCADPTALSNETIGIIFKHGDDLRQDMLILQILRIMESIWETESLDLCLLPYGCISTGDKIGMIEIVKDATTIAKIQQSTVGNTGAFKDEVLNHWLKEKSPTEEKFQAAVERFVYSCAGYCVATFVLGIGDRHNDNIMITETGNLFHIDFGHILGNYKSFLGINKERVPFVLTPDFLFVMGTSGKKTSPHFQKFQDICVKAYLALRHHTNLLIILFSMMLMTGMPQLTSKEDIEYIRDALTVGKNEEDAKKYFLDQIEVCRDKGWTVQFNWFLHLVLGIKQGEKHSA
Chain of Phosphatidylinositol 4,5-bisphosphate 3-kinase catalytic subunit alpha isoform (P42336 whole entry, canonical isoform): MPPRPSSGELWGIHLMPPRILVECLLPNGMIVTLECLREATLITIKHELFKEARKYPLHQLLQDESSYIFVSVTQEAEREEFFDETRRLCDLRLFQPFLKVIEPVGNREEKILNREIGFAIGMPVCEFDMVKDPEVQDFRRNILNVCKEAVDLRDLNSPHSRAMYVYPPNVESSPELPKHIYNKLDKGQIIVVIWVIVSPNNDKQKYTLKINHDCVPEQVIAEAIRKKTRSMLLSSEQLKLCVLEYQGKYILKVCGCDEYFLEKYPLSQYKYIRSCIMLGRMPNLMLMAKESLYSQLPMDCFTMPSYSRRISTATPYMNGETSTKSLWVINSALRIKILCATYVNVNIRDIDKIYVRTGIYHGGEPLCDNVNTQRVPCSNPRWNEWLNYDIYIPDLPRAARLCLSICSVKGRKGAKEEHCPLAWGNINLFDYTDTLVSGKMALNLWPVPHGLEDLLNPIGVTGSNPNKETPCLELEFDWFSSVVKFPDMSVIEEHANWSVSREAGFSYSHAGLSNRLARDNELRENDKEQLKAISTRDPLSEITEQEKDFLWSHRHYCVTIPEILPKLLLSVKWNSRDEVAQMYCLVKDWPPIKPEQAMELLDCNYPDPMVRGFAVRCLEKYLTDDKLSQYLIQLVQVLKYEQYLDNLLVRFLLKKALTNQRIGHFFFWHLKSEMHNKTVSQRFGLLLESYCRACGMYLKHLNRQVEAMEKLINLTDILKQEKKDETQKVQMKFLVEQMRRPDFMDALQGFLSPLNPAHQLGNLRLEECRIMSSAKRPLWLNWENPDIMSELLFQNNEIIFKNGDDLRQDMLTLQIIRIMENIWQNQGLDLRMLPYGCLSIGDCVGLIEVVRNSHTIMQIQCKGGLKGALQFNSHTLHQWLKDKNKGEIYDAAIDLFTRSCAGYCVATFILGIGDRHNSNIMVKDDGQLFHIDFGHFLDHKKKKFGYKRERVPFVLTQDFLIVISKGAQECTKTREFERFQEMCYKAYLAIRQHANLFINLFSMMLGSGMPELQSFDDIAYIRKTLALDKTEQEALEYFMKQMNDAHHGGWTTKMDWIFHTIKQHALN

By IC50 is commonly meant the midpoint of a concentration-inhibition curve. Read a high IC50 as weaker potency. Consider `COc1ncc(C2=CCOCC2)cc1NS(=O)(=O)c1cn(Cc2ccccc2)c(C)n1`, for which the IC50 in experiment [1] was 6 nM.

The molecule `c1cc(-c2ccc3ccncc3c2)c2cc[nH]c2c1` yielded an IC50 in experiment [2] greater than 32000 nM.

For `COc1ncc(-c2ccncc2)cc1NS(C)(=O)=O`, the IC50 was determined as 2500 nM in experiment [3], 790 nM in experiment [4], 6300 nM in experiment [2] and 250 nM in experiment [1].

Take `c1cc(-c2ccncc2)c2cc[nH]c2c1`: the IC50 in experiment [3], in experiment [4] and in experiment [2] was greater than 50000 nM in each case.

Consider `COc1ncc(-c2ccc3ccncc3c2)cc1NS(C)(=O)=O`, for which the concentration for half-maximal inhibition (IC50) in experiment [3] was 790 nM; in experiment [4], 2500 nM; in experiment [2] it was 2500 nM; in experiment [1], 160 nM.
